This note sets out measurements from patent publication US20040038894A1, “Compounds for modulating cell negative regulations and biological applications thereof” (INSTITUT NATIONAL DE LA SANTE ET DE LA RECHERCHE MEDICALE …, priority 1996, published 2004).

Test [1] concerns melanoma-specific CTL clones. The test can be described thus: Auto-presentation assay, CTL lysis. In kind it is cell-based, human. The following applies: clone M117-14, TYR peptide, 2 hours. How it is done:
(§1) 5×10^4 CTLs were incubated with indicated concentrations of peptides in 100 μl final volume. After two hours, supernatants were harvested to test the TNF secretion and lysis was estimated by flow cytometry on the basis of size/granularity patterns as previously described. TNF determinations were performed by a biologic assay using cytotoxicity on the sensitive WEHI 164 clone 13 cells, as compared to a standard curve established using rTNF-β (Genzyme).
Results are illustrated by FIG. 14 showing the negative regulation of antigen-induced CTL clone cytotoxicity by CD94-NKG2A. In FIG. 14, cells from the melanoma specific CTL clone M117-14 were stimulated in an auto-presentation assay with the indicated concentrations of cognate peptide (TYR). Cytotoxicity was measured, in the presence or absence of anti-CD94 mAb (HB-3B1). Cell lysis was estimated by flow cytometry on the basis of size/granularity patterns after auto-presentation in a short term assay (2 hours). Data shown are representative from 5 independent experiments.

Test [2] relates to melanoma-specific CTL clones. The test can be described thus: Auto-presentation assay, TNF release. The following applies: clone M117-14, TYR peptide 10 μM, mAb without cross-linking. In kind it is cell-based, human. How it is done:
as §1
Results are illustrated by FIG. 13 showing that CD94-NKG2A inhibits the antigen-specific TNF production by CTL clones. In FIG. 13, the melanoma specific CTL clones M117-14 and 7-10 were stimulated in an auto-presentation assay with their respective cognate peptides (i.e.:EAA for 7-10 and M77-84, and TYR for M117-14) at a concentration of 10 μM, in the presence or indicated mAbs. TNF release was assessed in the supernatant by a biological assay using the WEHI 164, a TNF sensitive cell line. Data from one representative experiment out of five, are expressed as mean TNF (pg/ml)±SD of triplicate samples.

In the case of Y1MDGTMSQV9 [TYR], the “CTL lysis (auto-toxicity)” value in test [1] is “lysed in a dose-dependent manner”. For the same substance, the TNF production result in test [2] is on record as “released TNF”.
